The NIST ThermoML archive (doi:10.1016/j.tca.2012.05.036)

Legend:
[1] = 101.33 kPa, Liquid, Vibrating tube method
[2] = refractive index (Na D-line) (dimensionless); details: 101.33 kPa, Liquid, Standard Abbe refractometry
[3] = relative permittivity at zero frequency (dimensionless); details: 101.33 kPa, Liquid, Parallel plate capacitor
[4] = refractive index (Na D-line) (dimensionless); xn = mol fraction of the nth substance listed; details: 101 kPa, Liquid, Standard Abbe refractometry
[5] = relative permittivity at zero frequency (dimensionless); xn = mol fraction of the nth substance listed; details: 101 kPa, Liquid, Parallel plate capacitor

CCCCCCCC [octane]
Details | mass density, [1] [kg/m3] | refractive index, [2] | relative permittivity at zero frequency, [3]
288.15 K | 706.81 | – | 1.975
293.15 K | 702.77 | 1.3991 | 1.968
298.15 K | 698.73 | 1.3967 | 1.961
303.15 K | 694.7 | 1.3945 | 1.954
308.15 K | 690.67 | – | 1.947

CCCCCO [pentan-1-ol]
Details | mass density, [1] [kg/m3] | refractive index, [2] | relative permittivity at zero frequency, [3]
288.15 K | 818.49 | – | 16.334
293.15 K | 814.82 | 1.41001 | 15.736
298.15 K | 811.19 | 1.4084 | 15.144
303.15 K | 807.5 | 1.4065 | 14.565
308.15 K | 803.86 | – | 13.998

CCCCCO [pentan-1-ol] + CCCCCCCC
Details | refractive index, 293.15 K | refractive index, 298.15 K | refractive index, 303.15 K | relative permittivity at zero frequency, 288.15 K | relative permittivity at zero frequency, 293.15 K | relative permittivity at zero frequency, 298.15 K | relative permittivity at zero frequency, 303.15 K | relative permittivity at zero frequency, 308.15 K
[4], x1 = 0.1008 | 1.3981 | 1.3965 | 1.3937 | – | – | – | – | –
[4], x1 = 0.2034 | 1.3988 | 1.3973 | 1.3946 | – | – | – | – | –
[4], x1 = 0.3004 | 1.3997 | 1.3982 | 1.3955 | – | – | – | – | –
[4], x1 = 0.3808 | 1.4005 | 1.3991 | 1.3964 | – | – | – | – | –
[4], x1 = 0.4885 | 1.4019 | 1.4004 | 1.3979 | – | – | – | – | –
[4], x1 = 0.593 | 1.4033 | 1.4019 | 1.3993 | – | – | – | – | –
[4], x1 = 0.6992 | 1.4047 | 1.4034 | 1.4008 | – | – | – | – | –
[4], x1 = 0.7922 | 1.4063 | 1.405 | 1.4026 | – | – | – | – | –
[4], x1 = 0.8967 | 1.4082 | 1.407 | 1.4046 | – | – | – | – | –
[5], x1 = 0.1008 | – | – | – | 2.104 | 2.1 | 2.096 | 2.092 | 2.088
[5], x1 = 0.2034 | – | – | – | 2.331 | 2.321 | 2.312 | 2.304 | 2.297
[5], x1 = 0.3004 | – | – | – | 2.766 | 2.731 | 2.699 | 2.669 | 2.643
[5], x1 = 0.3808 | – | – | – | 3.405 | 3.32 | 3.243 | 3.173 | 3.111
[5], x1 = 0.4885 | – | – | – | 4.798 | 4.601 | 4.421 | 4.257 | 4.109
[5], x1 = 0.593 | – | – | – | 6.675 | 6.358 | 6.053 | 5.774 | 5.516
[5], x1 = 0.6992 | – | – | – | 8.743 | 8.332 | 7.936 | 7.559 | 7.204
[5], x1 = 0.7922 | – | – | – | 11.143 | 10.654 | 10.175 | 9.712 | 9.267
[5], x1 = 0.8967 | – | – | – | 13.734 | 13.179 | 12.634 | 12.103 | 11.585
